Measurements: patent US10273222B2 (CELGENE QUANTICEL RESEARCH, INC., priority 2013, dated 2019)

Key:
Type in all cases: biochemical
FBXL10 = FBXL10 (Homo sapiens (Human), UniProt Q8NHM5); test: FBXL10 in vitro enzyme inhibition assay (AlphaScreen)
Outline: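 AlphaScreen read-out of H3K36me1 product, detected with anti-H3K36me1 antibody plus streptavidin donor and Protein A acceptor beads (final 10 μg/ml) in 50 mM HEPES pH 7.3, 10 mM NaCl, 0.005% Brij35, 5 mM EDTA, 2 mg/ml BSA. Beads incubated 2 h to overnight at room temperature; IC50 derived from AlphaScreen signal.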

Jarid1B = Jarid1B (Homo sapiens (Human), UniProt Q9UGL1); test: Jarid1B in vitro enzyme inhibition assay (TR-FRET)
Sequence of Jarid1B (Q9UGL1 2-751): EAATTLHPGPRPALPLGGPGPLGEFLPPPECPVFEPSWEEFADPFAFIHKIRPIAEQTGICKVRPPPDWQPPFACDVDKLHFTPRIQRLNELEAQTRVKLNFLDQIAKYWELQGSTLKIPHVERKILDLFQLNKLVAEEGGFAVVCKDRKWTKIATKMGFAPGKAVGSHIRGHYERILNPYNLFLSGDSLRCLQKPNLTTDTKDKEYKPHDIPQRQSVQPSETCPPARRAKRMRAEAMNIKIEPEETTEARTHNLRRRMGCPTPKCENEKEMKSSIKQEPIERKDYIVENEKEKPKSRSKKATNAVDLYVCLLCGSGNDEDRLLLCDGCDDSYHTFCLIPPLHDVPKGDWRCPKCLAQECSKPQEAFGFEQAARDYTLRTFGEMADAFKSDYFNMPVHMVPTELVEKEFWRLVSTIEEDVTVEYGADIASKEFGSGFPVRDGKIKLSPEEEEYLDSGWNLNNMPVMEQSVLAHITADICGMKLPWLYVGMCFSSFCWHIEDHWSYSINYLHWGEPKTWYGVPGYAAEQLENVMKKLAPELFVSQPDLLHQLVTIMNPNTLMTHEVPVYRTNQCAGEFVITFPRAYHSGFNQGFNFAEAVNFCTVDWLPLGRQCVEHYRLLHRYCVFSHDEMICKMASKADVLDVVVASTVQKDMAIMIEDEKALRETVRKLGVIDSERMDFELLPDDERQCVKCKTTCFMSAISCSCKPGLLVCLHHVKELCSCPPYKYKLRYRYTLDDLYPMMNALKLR
Procedure: This assay determines the ability of a test compound to inhibit Jarid1A, Jarid1B, JMJD2C, and JMJD2A demethylase activity.
The ability of test compounds to inhibit the activity of Jarid1B was determined in 384-well plate format under the following reaction conditions: 0.8 nM Jarid1B, 300 nM H3K4me3-biotin labeled peptide (Anaspec cat #64357), 2 μM alpha-ketoglutaric acid in assay buffer of 50 mM HEPES, pH7.3, 0.005% Brij35, 0.5 mM TCEP, 0.2 mg/ml BSA, 50 μM sodium L-ascorbate, and 2 μM ammonium iron(II) sulfate. Reaction product was determined quantitatively by TR-FRET after the addition of detection reagent Phycolink Streptavidin-allophycocyanin (Prozyme) and Europium-anti-mono- or di-methylated histone H3 lysine 4 (H3K4me1-2) antibody (PerkinElmer) in the presence of 5 mM EDTA in LANCE detection buffer (PerkinElmer) at a final concentration of 25 nM and 1 nM, respectively.
The assay reaction was initiated by the following: 2 μl of the mixture of 900 nM H3K4me3-biotin labeled peptide and 6 μM alpha-ketoglutaric acid with 2 μl of 11-point serial diluted inhibitor in 3% DMSO was added to each well of the plate, followed by the addition of 2 μl of 2.4 nM Jarid1B to initiate the reaction. The reaction mixture was incubated at room temperature for 30 minutes, and terminated by the addition of 6 μl of 5 mM EDTA in LANCE detection buffer containing 50 nM Phycolink Streptavidin-allophycocyanin and 2 nM Europium-anti-H3K4me1-2 antibody. Plates were read by EnVisionMultilabel Reader in TR-FRET mode (excitation at 320 nm, emission at 615 nm and 665 nm) after 1 hour incubation at room temperature. A ratio was calculated (665/615) for each well and fitted to determine inhibition constant (IC50).

JMJD2A = JMJD2A (Homo sapiens (Human), UniProt O75164); test: JMJD2A in vitro enzyme inhibition assay (TR-FRET)
Sequence of JMJD2A (O75164 1-350): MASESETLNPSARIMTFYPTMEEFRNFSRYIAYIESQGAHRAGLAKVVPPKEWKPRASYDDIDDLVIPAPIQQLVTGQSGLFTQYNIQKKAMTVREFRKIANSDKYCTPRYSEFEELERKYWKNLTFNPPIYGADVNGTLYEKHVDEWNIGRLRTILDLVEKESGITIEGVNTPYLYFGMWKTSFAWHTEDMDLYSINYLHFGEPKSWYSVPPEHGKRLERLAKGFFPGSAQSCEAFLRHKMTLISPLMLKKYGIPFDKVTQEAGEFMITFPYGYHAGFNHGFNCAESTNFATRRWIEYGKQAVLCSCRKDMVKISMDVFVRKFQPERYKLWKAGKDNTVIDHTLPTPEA

Jarid1A = Jarid1A (Homo sapiens (Human), UniProt P29375); test: Jarid1A in vitro enzyme inhibition assay (TR-FRET)
Sequence of Jarid1A (P29375 1-1090): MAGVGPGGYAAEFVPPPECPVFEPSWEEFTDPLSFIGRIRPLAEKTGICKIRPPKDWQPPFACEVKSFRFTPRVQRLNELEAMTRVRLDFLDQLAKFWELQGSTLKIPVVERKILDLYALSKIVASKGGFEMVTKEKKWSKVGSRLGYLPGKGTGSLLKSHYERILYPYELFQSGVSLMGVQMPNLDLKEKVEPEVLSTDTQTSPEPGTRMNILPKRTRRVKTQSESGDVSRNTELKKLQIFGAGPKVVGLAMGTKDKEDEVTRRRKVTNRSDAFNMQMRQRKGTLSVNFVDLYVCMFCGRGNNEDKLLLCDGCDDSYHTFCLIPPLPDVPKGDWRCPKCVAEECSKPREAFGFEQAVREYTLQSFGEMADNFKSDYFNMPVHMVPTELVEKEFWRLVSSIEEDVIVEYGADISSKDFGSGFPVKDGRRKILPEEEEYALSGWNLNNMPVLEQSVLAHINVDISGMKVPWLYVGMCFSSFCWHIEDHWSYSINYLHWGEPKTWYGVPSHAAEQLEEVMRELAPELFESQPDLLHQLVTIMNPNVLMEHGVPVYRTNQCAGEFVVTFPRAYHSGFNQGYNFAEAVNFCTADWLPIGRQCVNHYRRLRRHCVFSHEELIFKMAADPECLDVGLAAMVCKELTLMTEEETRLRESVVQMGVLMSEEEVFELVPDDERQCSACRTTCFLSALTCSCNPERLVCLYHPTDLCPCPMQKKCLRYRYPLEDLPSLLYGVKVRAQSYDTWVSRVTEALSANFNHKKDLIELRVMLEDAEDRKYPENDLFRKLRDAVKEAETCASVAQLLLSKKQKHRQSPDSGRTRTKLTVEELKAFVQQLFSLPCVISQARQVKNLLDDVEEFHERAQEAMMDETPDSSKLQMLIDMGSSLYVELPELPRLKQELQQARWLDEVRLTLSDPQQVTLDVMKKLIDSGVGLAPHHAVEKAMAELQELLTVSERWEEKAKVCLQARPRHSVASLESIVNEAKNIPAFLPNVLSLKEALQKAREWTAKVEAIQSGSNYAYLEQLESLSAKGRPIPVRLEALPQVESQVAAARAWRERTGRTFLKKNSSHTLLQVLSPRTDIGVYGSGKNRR
From the text: The enzymatic assay of Jarid1A activity is based upon Time Resolved-Fluorescence Resonance Energy Transfer (TR-FRET) detection.

JMJD2C = JMJD2C (Homo sapiens (Human), UniProt Q9H3R0); test: JMJD2C in vitro enzyme inhibition assay (TR-FRET)
Sequence of JMJD2C (Q9H3R0 2-372): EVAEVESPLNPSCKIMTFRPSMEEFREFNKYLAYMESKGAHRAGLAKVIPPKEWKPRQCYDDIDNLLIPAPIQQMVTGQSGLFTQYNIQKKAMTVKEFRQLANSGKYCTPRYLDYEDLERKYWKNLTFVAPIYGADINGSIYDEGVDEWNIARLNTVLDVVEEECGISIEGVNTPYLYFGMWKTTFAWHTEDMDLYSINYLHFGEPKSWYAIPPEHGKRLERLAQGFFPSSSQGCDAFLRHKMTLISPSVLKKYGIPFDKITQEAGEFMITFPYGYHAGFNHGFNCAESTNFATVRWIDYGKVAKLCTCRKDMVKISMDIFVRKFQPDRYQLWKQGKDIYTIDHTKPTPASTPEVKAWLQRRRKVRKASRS

Sequence of FBXL10 (Q8NHM5 1-650): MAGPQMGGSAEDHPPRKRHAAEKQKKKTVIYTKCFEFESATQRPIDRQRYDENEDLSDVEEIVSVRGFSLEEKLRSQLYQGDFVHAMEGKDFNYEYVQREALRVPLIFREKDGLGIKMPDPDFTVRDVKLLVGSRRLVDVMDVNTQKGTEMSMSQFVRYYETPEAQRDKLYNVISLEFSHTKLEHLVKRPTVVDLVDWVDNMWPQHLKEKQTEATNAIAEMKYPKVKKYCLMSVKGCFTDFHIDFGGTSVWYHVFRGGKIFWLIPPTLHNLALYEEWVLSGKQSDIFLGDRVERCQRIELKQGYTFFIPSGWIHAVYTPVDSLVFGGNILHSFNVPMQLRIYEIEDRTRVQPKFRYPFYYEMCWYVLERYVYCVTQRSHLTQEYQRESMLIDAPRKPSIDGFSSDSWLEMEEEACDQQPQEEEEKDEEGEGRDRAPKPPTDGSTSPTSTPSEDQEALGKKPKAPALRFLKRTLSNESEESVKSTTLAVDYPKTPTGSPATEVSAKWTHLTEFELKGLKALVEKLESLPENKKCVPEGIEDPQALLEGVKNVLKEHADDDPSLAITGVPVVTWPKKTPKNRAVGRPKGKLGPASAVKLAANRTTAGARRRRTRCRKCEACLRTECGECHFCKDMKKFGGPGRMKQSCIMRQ

Row | SMILES | IC50 (FBXL10) | IC50 (Jarid1B) | IC50 (JMJD2A) | IC50 (Jarid1A) | IC50 (JMJD2C)
1 | CN(CCn1cnc(-c2cc(C(=O)O)ccn2)c1)Cc1ccc(F)cc1 [Example 38, 2-[1-[2-[(4-fluorophenyl)methyl-methylamino]ethyl]imidazol-4-yl]pyridine-4-carboxylic acid] | ≤ 100 nM | ≤ 100 nM | ≤ 100 nM | ≤ 100 nM | ≤ 100 nM
2 | CN(C)CCOCCn1cnc(-c2cc(C(=O)O)ccn2)c1 [Example 48, 2-(1-{2-[2-(dimethylamino)ethoxy]ethyl}-1H-imidazol-4-yl)pyridine-4-carboxylic acid] | 100 to 1000 nM | ≤ 100 nM | ≤ 100 nM | ≤ 100 nM | ≤ 100 nM
3 | CN1CCC(Cn2cnc(-c3cc(C(=O)O)ccn3)c2)CC1 [Example 50, 2-{1-[(1-methylpiperidin-4-yl)methyl]-1H-imidazol-4-yl}pyridine-4-carboxylic acid] | 1000 to 10000 nM | ≤ 100 nM | ≤ 100 nM | ≤ 100 nM | ≤ 100 nM
4 | CN(CCn1cnc(-c2cc(C(=O)O)ccn2)c1)c1ccccc1 [Example 58, 2-(1-{2-[methyl(phenyl)amino]ethyl}-1H-imidazol-4-yl)pyridine-4-carboxylic acid] | ≤ 100 nM | ≤ 100 nM | 100 to 1000 nM | ≤ 100 nM | 100 to 1000 nM
5 | CN(CCn1cnc(-c2cc(C(=O)O)ccn2)c1)CC1CC1 [Example 59, 2-(1-{2-[(cyclopropylmethyl)(methyl)amino]ethyl}-1H-imidazol-4-yl)pyridine-4-carboxylic acid] | 100 to 1000 nM | ≤ 100 nM | ≤ 100 nM | ≤ 100 nM | ≤ 100 nM
6 | O=C(O)c1ccnc(-c2cn(CCN3CCCC3=O)cn2)c1 [Example 60, 2-{1-[2-(2-oxopyrrolidin-1-yl)ethyl]-1H-imidazol-4-yl}pyridine-4-carboxylic acid] | ≤ 100 nM | ≤ 100 nM | ≤ 100 nM | ≤ 100 nM | 100 to 1000 nM
7 | c1cc(-c2nn[nH]n2)cc(-c2cn(CCN3CCCC3)cn2)n1 [Example 63, 2-{1-[2-(pyrrolidin-1-yl)ethyl]-1H-imidazol-4-yl}-4-(2H-tetrazol-5-yl)pyridine] | 100 to 1000 nM | ≤ 100 nM | 1000 to 10000 nM | ≤ 100 nM | 100 to 1000 nM
8 | CN(CCn1cnc(-c2cc(C(=O)NC#N)ccn2)c1)CC1CC1 [Example 64, N-cyano-2-(1-{2-[(cyclopropylmethyl)(methyl)amino]ethyl}-1H-imidazol-4-yl)pyridine-4-carboxamide] | > 10000 nM | ≤ 100 nM | > 10000 nM | ≤ 100 nM | 100 to 1000 nM
9 | Cc1cccc(CN(C)CCn2cnc(-c3cc(C(=O)O)ccn3)c2)c1 [Example 66, 2-[1-[2-[methyl-[(3-methylphenyl)methyl]amino]ethyl]imidazol-4-yl]pyridine-4-carboxylic acid] | ≤ 100 nM | ≤ 100 nM | ≤ 100 nM | ≤ 100 nM | ≤ 100 nM
10 | Cc1ccc(CN(C)CCn2cnc(-c3cc(C(=O)O)ccn3)c2)cc1 [Example 67, 2-[1-[2-[methyl-[(4-methylphenyl)methyl]amino]ethyl]imidazol-4-yl]pyridine-4-carboxylic acid] | ≤ 100 nM | ≤ 100 nM | ≤ 100 nM | ≤ 100 nM | ≤ 100 nM
11 | CN(CCn1cnc(-c2cc(C(=O)O)ccn2)c1)Cc1ccc(C(F)(F)F)cc1 [Example 68, 2-[1-[2-[methyl-[[4-(trifluoromethyl)phenyl]methyl]amino]ethyl]imidazol-4-yl]pyridine-4-carboxylic acid] | ≤ 100 nM | ≤ 100 nM | ≤ 100 nM | ≤ 100 nM | ≤ 100 nM
12 | CN(CCn1cnc(-c2cc(C(=O)O)ccn2)c1)Cc1cccc(F)c1 [Example 69, 2-[1-[2-[(3-fluorophenyl)methyl-methylamino]ethyl]imidazol-4-yl]pyridine-4-carboxylic acid] | ≤ 100 nM | ≤ 100 nM | ≤ 100 nM | ≤ 100 nM | ≤ 100 nM
13 | CCN(CCn1cnc(-c2cc(C(=O)O)ccn2)c1)Cc1ccc(F)cc1 [Example 70, 2-[1-[2-[ethyl-[(4-fluorophenyl)methyl]amino]ethyl]imidazol-4-yl]pyridine-4-carboxylic acid] | ≤ 100 nM | ≤ 100 nM | ≤ 100 nM | ≤ 100 nM | ≤ 100 nM
14 | O=C(O)c1ccnc(-c2cn(CCN3Cc4ccc(C(F)(F)F)cc4C3)cn2)c1 [Example 84, 2-[1-[2-[5-(trifluoromethyl)-1,3-dihydroisoindol-2-yl]ethyl]imidazol-4-yl]pyridine-4-carboxylic acid] | ≤ 100 nM | ≤ 100 nM | – | ≤ 100 nM | ≤ 100 nM
15 | O=C(O)c1ccnc(-c2cn(CCN(Cc3ccc(Cl)cc3)C3CC3)cn2)c1 [Example 85, 2-[1-[2-[(4-chlorophenyl)methyl-cyclopropylamino]ethyl]imidazol-4-yl]pyridine-4-carboxylic acid] | ≤ 100 nM | ≤ 100 nM | – | ≤ 100 nM | 100 to 1000 nM
16 | O=C(O)c1ccnc(-c2cn(CCN(Cc3ccc(Cl)c(Cl)c3)C3CC3)cn2)c1 [Example 86, 2-[1-[2-[cyclopropyl-[(3,4-dichlorophenyl)methyl]amino]ethyl]imidazol-4-yl]pyridine-4-carboxylic acid] | ≤ 100 nM | ≤ 100 nM | – | ≤ 100 nM | 100 to 1000 nM
17 | CN(CCn1cnc(-c2cc(C(=O)O)ccn2)c1)c1ccc(Cl)cc1 [Example 87, 2-[1-[2-(4-chloro-N-methylanilino)ethyl]imidazol-4-yl]pyridine-4-carboxylic acid] | ≤ 100 nM | ≤ 100 nM | 100 to 1000 nM | ≤ 100 nM | 100 to 1000 nM
18 | O=C(O)c1ccnc(-c2cn(CCN3CCCc4cc(Cl)ccc43)cn2)c1 [Example 89, 2-[1-[2-(6-chloro-3,4-dihydro-2H-quinolin-1-yl)ethyl]imidazol-4-yl]pyridine-4-carboxylic acid] | ≤ 100 nM | ≤ 100 nM | 100 to 1000 nM | ≤ 100 nM | 100 to 1000 nM
19 | O=C(O)c1ccnc(-c2cn(CCN3CCCc4cc(F)ccc43)cn2)c1 [Example 90, 2-[1-[2-(6-fluoro-3,4-dihydro-2H-quinolin-1-yl)ethyl]imidazol-4-yl]pyridine-4-carboxylic acid] | ≤ 100 nM | ≤ 100 nM | ≤ 100 nM | ≤ 100 nM | 100 to 1000 nM
20 | O=C(O)c1ccnc(-c2cn(CCN3CCc4cc(F)ccc43)cn2)c1 [Example 91, 2-[1-[2-(5-fluoro-2,3-dihydroindol-1-yl)ethyl]imidazol-4-yl]pyridine-4-carboxylic acid] | 100 to 1000 nM | ≤ 100 nM | 100 to 1000 nM | ≤ 100 nM | 100 to 1000 nM
21 | CCC(c1ccccc1)n1cnc(-c2cc(C(=O)O)ccn2)c1 (stereo not drawn) [Example 107, 2-[1-(1-phenylpropyl)imidazol-4-yl]pyridine-4-carboxylic acid] | ≤ 100 nM | ≤ 100 nM | ≤ 100 nM | ≤ 100 nM | 100 to 1000 nM
22 | CC(C)C(c1ccccc1)n1cnc(-c2cc(C(=O)O)ccn2)c1 (stereo not drawn) [Example 108, 2-[1-(2-methyl-1-phenylpropyl)imidazol-4-yl]pyridine-4-carboxylic acid] | ≤ 100 nM | ≤ 100 nM | 100 to 1000 nM | ≤ 100 nM | 100 to 1000 nM
23 | O=C(O)c1ccnc(-c2cn(C3CCc4ccc(F)cc43)cn2)c1 (stereo not drawn) [Example 109, 2-[1-(6-fluoro-2,3-dihydro-1H-inden-1-yl)imidazol-4-yl]pyridine-4-carboxylic acid] | ≤ 100 nM | ≤ 100 nM | 100 to 1000 nM | ≤ 100 nM | 1000 to 10000 nM
24 | O=C(O)c1ccnc(-c2cn(CCc3cccc(Cl)c3)cn2)c1 [Example 113, 2-[1-[2-(3-chlorophenyl)ethyl]imidazol-4-yl]pyridine-4-carboxylic acid] | ≤ 100 nM | ≤ 100 nM | – | ≤ 100 nM | 100 to 1000 nM
25 | O=C(O)c1ccnc(-c2cn(CCC3CCCCC3)cn2)c1 [Example 114, 2-[1-(2-cyclohexylethyl)imidazol-4-yl]pyridine-4-carboxylic acid] | ≤ 100 nM | ≤ 100 nM | – | ≤ 100 nM | 100 to 1000 nM
26 | O=C(O)c1ccnc(-c2cn(CC3CCCCC3)cn2)c1 [Example 115, 2-[1-(cyclohexylmethyl)imidazol-4-yl]pyridine-4-carboxylic acid] | ≤ 100 nM | ≤ 100 nM | – | ≤ 100 nM | 100 to 1000 nM
27 | c1ccc2c(CCn3cnc(-c4cc(-c5nn[nH]n5)ccn4)c3)cccc2c1 [Example 142, 2-[1-(2-naphthalen-1-ylethyl)imidazol-4-yl]-4-(2H-tetrazol-5-yl)pyridine] | ≤ 100 nM | ≤ 100 nM | > 10000 nM | – | 1000 to 10000 nM
28 | c1ccc2c(c1)CCCC2Cn1cnc(-c2cc(-c3nn[nH]n3)ccn2)c1 (stereo not drawn) [Example 143, 2-[1-(1,2,3,4-tetrahydronaphthalen-1-ylmethyl)imidazol-4-yl]-4-(2H-tetrazol-5-yl)pyridine] | ≤ 100 nM | 100 to 1000 nM | > 10000 nM | – | 1000 to 10000 nM
